Key:
Thromboxane-A synthase = biological target: T1, Thromboxane-A synthase (Homo sapiens, UniProt P24557); test: biochemical; type: tissue-based, Platelet; conditions: platelet;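 further: enzyme inhibition assay with PGH2 supplied as substrate; in other assays of this panel Not Active means under 50% inhibition at 10 µM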
T1 sequence (P24557 whole entry): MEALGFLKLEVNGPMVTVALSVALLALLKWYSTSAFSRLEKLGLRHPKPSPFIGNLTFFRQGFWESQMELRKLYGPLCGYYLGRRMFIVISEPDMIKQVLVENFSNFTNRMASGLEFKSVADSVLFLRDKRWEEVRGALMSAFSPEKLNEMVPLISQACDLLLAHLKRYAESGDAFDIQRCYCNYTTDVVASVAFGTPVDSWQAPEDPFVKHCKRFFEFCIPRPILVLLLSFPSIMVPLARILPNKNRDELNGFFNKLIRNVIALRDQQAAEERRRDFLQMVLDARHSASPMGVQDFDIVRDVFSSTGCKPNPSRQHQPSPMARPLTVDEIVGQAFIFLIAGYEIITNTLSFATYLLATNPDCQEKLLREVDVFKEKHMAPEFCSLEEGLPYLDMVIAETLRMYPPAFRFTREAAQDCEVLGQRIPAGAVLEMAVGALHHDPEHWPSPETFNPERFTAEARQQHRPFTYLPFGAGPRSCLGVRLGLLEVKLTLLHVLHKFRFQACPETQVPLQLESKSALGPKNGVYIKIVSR

[1] = DRUGMATRIX: Calcium Channel Type L, Phenylalkylamine radioligand binding (ligand: [3H] (-)-Desmethoxyverapamil (D-888)); type: cell membranes, Rattus norvegicus, Wistar, Brain, Membrane; conditions: Not Active = under 50% inhibition at 10 µM
[2] = biological target: Delta-type opioid receptor (Homo sapiens, UniProt P41143); type: cell membranes, HEK293, Membrane; conditions: hek293; further: in other assays of this panel Not Active means under 50% inhibition at 10 µM
Chain of Delta-type opioid receptor (P41143 whole entry): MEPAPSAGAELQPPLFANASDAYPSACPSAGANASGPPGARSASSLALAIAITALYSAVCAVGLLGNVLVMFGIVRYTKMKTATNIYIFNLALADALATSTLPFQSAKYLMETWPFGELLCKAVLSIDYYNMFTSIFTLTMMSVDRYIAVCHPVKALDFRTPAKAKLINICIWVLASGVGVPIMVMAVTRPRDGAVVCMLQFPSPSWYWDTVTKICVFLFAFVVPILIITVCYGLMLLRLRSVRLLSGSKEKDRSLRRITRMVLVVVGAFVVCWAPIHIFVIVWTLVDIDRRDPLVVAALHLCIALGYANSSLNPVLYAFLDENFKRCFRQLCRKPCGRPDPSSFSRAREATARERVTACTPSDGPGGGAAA

[3] = biological target: Mitogen-activated protein kinase 1 (Homo sapiens, UniProt P28482); test: DRUGMATRIX: Protein Serine/Threonine Kinase, ERK2 enzyme inhibition (substrate: Myelin Basic Protein); parameters: species or system Escherichia coli; conditions: Not Active = under 50% inhibition at 10 µM
Chain of Mitogen-activated protein kinase 1 (P28482 whole entry): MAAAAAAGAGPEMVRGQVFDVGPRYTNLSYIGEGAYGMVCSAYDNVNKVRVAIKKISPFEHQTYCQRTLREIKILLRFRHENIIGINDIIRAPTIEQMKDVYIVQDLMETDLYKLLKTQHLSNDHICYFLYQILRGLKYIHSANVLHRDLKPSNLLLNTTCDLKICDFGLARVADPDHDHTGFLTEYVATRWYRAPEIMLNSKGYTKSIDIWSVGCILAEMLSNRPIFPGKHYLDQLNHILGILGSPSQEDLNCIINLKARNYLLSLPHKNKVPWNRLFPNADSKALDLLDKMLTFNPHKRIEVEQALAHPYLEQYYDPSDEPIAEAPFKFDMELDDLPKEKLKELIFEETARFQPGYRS

[4] = biological target: Mitogen-activated protein kinase 14 (Homo sapiens, UniProt Q16539); parameters: species or system Escherichia coli;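 further: inhibition of p38alpha enzyme activity in a biochemical kinase assay, with myelin basic protein serving as substrate; in other assays of this panel Not Active means under 50% inhibition at 10 µM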
Chain of Mitogen-activated protein kinase 14 (Q16539 whole entry): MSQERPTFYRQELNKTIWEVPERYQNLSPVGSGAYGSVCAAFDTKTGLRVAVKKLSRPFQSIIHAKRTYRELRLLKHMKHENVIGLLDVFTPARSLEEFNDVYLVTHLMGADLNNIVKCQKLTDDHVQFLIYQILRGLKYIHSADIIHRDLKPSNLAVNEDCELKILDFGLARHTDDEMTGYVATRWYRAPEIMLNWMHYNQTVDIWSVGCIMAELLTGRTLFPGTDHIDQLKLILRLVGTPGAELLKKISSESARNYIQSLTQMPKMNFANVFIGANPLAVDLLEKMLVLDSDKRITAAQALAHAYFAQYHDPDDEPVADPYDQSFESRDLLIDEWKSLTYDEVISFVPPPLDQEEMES

[5] = biological target: 5-hydroxytryptamine receptor 1B (Rattus norvegicus, UniProt P28564); type: cell membranes, Wistar, Cerebral cortex, Membrane; further: in other assays of this panel Not Active means under 50% inhibition at 10 µM
Chain of 5-hydroxytryptamine receptor 1B (P28564 whole entry): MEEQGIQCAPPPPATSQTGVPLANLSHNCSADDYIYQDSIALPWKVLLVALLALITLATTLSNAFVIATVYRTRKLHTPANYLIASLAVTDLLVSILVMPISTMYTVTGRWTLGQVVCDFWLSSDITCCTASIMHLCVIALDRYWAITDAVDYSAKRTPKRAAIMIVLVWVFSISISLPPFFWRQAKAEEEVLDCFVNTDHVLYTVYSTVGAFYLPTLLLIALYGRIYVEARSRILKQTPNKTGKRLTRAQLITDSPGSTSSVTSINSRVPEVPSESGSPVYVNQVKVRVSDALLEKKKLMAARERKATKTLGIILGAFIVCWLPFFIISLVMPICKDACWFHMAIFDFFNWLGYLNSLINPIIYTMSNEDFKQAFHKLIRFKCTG

INSULIN HUMAN
IC50 (Thromboxane-A synthase): Not Active
Ki (Thromboxane-A synthase): Not Active
IC50 [1]: Not Active
Ki [1]: Not Active
IC50 [2]: Not Active
Ki [2]: Not Active
IC50 [3]: Not Active
Ki [3]: Not Active
IC50 [4]: Not Active
Ki [4]: Not Active
IC50 [5]: Not Active
Ki [5]: Not Active

CCOC(=O)[C@H](CCc1ccccc1)N[C@@H](C)C(=O)N1CCC[C@H]1C(=O)O
IC50 (Thromboxane-A synthase): Not Active
IC50 [1]: Not Active
Ki [1]: Not Active
IC50 [2]: Not Active
IC50 [3]: Not Active
IC50 [4]: Not Active
IC50 [5]: Not Active

O=C(O)c1cc(=O)c2c(OCC(O)COc3cccc4oc(C(=O)O)cc(=O)c34)cccc2o1 [CROMOLYN]
IC50 (Thromboxane-A synthase): Not Active
IC50 [1]: Not Active
Ki [1]: Not Active
IC50 [2]: Not Active
IC50 [3]: Not Active
IC50 [4]: Not Active
IC50 [5]: Not Active

Cc1cccc(Nc2cc(Cl)nc(SCC(=O)O)n2)c1C [PIRINIXIC ACID]
IC50 (Thromboxane-A synthase): Not Active
IC50 [1]: Not Active
Ki [1]: Not Active
IC50 [2]: Not Active
IC50 [3]: Not Active
IC50 [4]: Not Active
IC50 [5]: Not Active

CC[C@H]1OC(=O)[C@H](C)[C@@H](O[C@H]2C[C@@](C)(OC)[C@@H](O)[C@H](C)O2)[C@H](C)[C@@H](O[C@@H]2O[C@H](C)C[C@H](N(C)C)[C@H]2O)[C@](C)(OC)C[C@@H](C)C(=O)[C@H](C)[C@@H](O)[C@]1(C)O [CLARITHROMYCIN]
IC50 (Thromboxane-A synthase): Not Active
IC50 [1]: Not Active
Ki [1]: Not Active
IC50 [2]: Not Active
IC50 [3]: Not Active
IC50 [4]: Not Active
IC50 [5]: Not Active

CCc1oc2ccccc2c1C(=O)c1cc(Br)c(O)c(Br)c1 [BENZBROMARONE]
IC50 (Thromboxane-A synthase): Not Active
IC50 [1]: Not Active
Ki [1]: Not Active
IC50 [2]: Not Active
IC50 ([3]; read-out: IC50): 1950 nM
IC50 ([4]; read-out: IC50): 1240 nM
IC50 [5]: Not Active

CC[C@]1(O)CC[C@H]2[C@@H]3CCC4=CCCC[C@@H]4[C@H]3CC[C@@]21C
IC50 (Thromboxane-A synthase): Not Active
IC50 [1]: Not Active
Ki [1]: Not Active
IC50 [2]: Not Active
IC50 [3]: Not Active
IC50 [4]: Not Active
IC50 [5]: Not Active

CC(C)(Oc1ccc(C2CC2(Cl)Cl)cc1)C(=O)O (stereo not given) [CIPROFIBRATE]
IC50 (Thromboxane-A synthase): Not Active
IC50 [1]: Not Active
Ki [1]: Not Active
IC50 [2]: Not Active
IC50 [3]: Not Active
IC50 [4]: Not Active
IC50 [5]: Not Active

CO[C@H]1[C@@H](O)[C@H](N)[C@@H](O[C@H]2O[C@H]([C@H](C)N)CC[C@H]2N)[C@H](O)[C@@H]1N(C)C(=O)CN [ASTROMICIN]
IC50 (Thromboxane-A synthase): Not Active
IC50 [1]: Not Active
Ki [1]: Not Active
IC50 [2]: Not Active
IC50 [3]: Not Active
IC50 [4]: Not Active
IC50 [5]: Not Active

Clc1cc2c(cc1Cl)Oc1cc(Cl)c(Cl)cc1O2 [2,3,7,8-TETRACHLORODIBENZO-P-DIOXIN]
IC50 (Thromboxane-A synthase): Not Active
IC50 [1]: Not Active
Ki [1]: Not Active
IC50 [2]: Not Active
IC50 [3]: Not Active
IC50 [4]: Not Active
IC50 [5]: Not Active

CNC(=C[N+](=O)[O-])NCCSCc1csc(CN(C)C)n1 [NIZATIDINE]
IC50 (Thromboxane-A synthase): Not Active
IC50 [1]: Not Active
Ki [1]: Not Active
IC50 [2]: Not Active
IC50 [3]: Not Active
IC50 [4]: Not Active
IC50 [5]: Not Active

N=C(N)N/N=C/c1c(Cl)cccc1Cl [GUANABENZ]
IC50 (Thromboxane-A synthase): Not Active
IC50 [1]: Not Active
Ki [1]: Not Active
IC50 [2]: Not Active
IC50 [3]: Not Active
IC50 [4]: Not Active
IC50 [5]: Not Active

CC(C)C[C@H]1C(=O)N2CCC[C@H]2[C@]2(O)O[C@](NC(=O)[C@@H]3C=C4c5cccc6[nH]c(Br)c(c56)C[C@H]4N(C)C3)(C(C)C)C(=O)N12 [BROMOCRIPTINE]
IC50 (Thromboxane-A synthase): Not Active
IC50 [1]: Not Active
Ki [1]: Not Active
IC50 [2]: Not Active
IC50 [3]: Not Active
IC50 [4]: Not Active
IC50 ([5]; read-out: IC50): 103 nM
Ki ([5]; read-out: Ki): 47 nM

COc1ccc2cc(CCC(C)=O)ccc2c1 [NABUMETONE]
IC50 (Thromboxane-A synthase): Not Active
IC50 [1]: Not Active
Ki [1]: Not Active
IC50 [2]: Not Active
IC50 [3]: Not Active
IC50 [4]: Not Active
IC50 [5]: Not Active

CC(C(=O)O)c1ccc(CC2CCCC2=O)cc1 (stereo not given) [LOXOPROFEN]
IC50 (Thromboxane-A synthase): Not Active
IC50 [1]: Not Active
Ki [1]: Not Active
IC50 [2]: Not Active
IC50 [3]: Not Active
IC50 [4]: Not Active
IC50 [5]: Not Active

CCCCCC[C@H]1C(=O)O[C@H](C)[C@H](NC(=O)c2cccc(NC=O)c2O)C(=O)O[C@@H](C)[C@@H]1OC(=O)CC(C)C [ANTIMYCIN A]
IC50 (Thromboxane-A synthase): Not Active
IC50 [1]: Not Active
Ki [1]: Not Active
IC50 [2]: Not Active
IC50 ([3]; read-out: IC50): 2120 nM
IC50 [4]: Not Active
IC50 [5]: Not Active

COc1ccc(Cc2nccc3cc(OC)c(OC)cc23)cc1OC [PAPAVERINE]
IC50 (Thromboxane-A synthase): Not Active
IC50 [1]: Not Active
Ki [1]: Not Active
IC50 [2]: Not Active
IC50 [3]: Not Active
IC50 [4]: Not Active
IC50 [5]: Not Active

O=c1cc(-c2ccccc2)oc2ccc3ccccc3c12 [BETA-NAPHTHOFLAVONE]
IC50 (Thromboxane-A synthase): Not Active
IC50 [1]: Not Active
Ki [1]: Not Active
IC50 [2]: Not Active
IC50 [3]: Not Active
IC50 [4]: Not Active
IC50 [5]: Not Active

CC(=O)O[C@]1(C(C)=O)CC[C@H]2[C@@H]3C=C(Cl)C4=CC(=O)[C@@H]5C[C@@H]5[C@]4(C)[C@H]3CC[C@@]21C [CYPROTERONE ACETATE]
IC50 (Thromboxane-A synthase): Not Active
IC50 [1]: Not Active
Ki [1]: Not Active
IC50 [2]: Not Active
IC50 [3]: Not Active
IC50 [4]: Not Active
IC50 [5]: Not Active

CCN[C@@H](C)Cc1cccc(C(F)(F)F)c1 [DEXFENFLURAMINE]
IC50 (Thromboxane-A synthase): Not Active
IC50 [1]: Not Active
Ki [1]: Not Active
IC50 [2]: Not Active
IC50 [3]: Not Active
IC50 [4]: Not Active
IC50 [5]: Not Active

Nn1nnc2ccccc21
IC50 (Thromboxane-A synthase): Not Active
IC50 [1]: Not Active
Ki [1]: Not Active
IC50 [2]: Not Active
IC50 [3]: Not Active
IC50 [4]: Not Active
IC50 [5]: Not Active

O=C(O)Cc1ccc(-c2ccccc2)cc1 [FELBINAC]
IC50 (Thromboxane-A synthase): Not Active
IC50 [1]: Not Active
Ki [1]: Not Active
IC50 [2]: Not Active
IC50 [3]: Not Active
IC50 [4]: Not Active
IC50 [5]: Not Active

Reference: ChEMBL document CHEMBL1909046, “DrugMatrix in vitro pharmacology data”
